Laboratory results as given in PMC6789111, “Crossing the blood-brain-barrier with nanoligand drug carriers self-assembled from a phage display peptide” (Nature Communications, 2019).
Where two headings read alike, the source gives them in different places. Peptide text beside a SMILES is read from it. * marks the point of attachment. 5FAM = O=C1OC2(c3ccc(O)cc3Oc3cc(O)ccc32)c2ccc(C(=O)*)cc21

Experiments:
hCMEC/D3 cell monolayer = assay: Transwell in vitro BBB model; type: cell-based, human
Method: For the construction of the in vitro BBB model, hCMEC/D3 cells were seeded on rat tail collagen-coated polycarbonate membranes (Transwell, No. 3401 Costar; Corning, Wiesbaden, Germany; 0.4 μm pore size; 1.13 cm^2 growth area) with a density of 100,000 cells cm^−2. Every three days the cell medium was change. In general after 7 days growth, the cells reached confluence. The transendothelial electrical resistance (TEER) and cell layer capacitance (CCL), which reflects the membrane surface area of the hCMEC/D3 cell monolayer, were measured using CellZscope system (NanoAnalytics, Münster, Germany). Cells with CCL values in the range of 0.5–5.0 μF cm^−2 indicate cell confluence and validate TEER values were selected for the transfer experiments. NLCs at different concentrations were introduced in to the apical side of the BBB model. The TEER values were measured during the incubation. After 24 h of incubation, the media from basal and apical sides were sampled and analysed for fluorescent measurement. CD31 and paracellular adherens (β-catenin) junctions were assessed by immunofluorescence labeling directly on the cell monolayer attached to the transwell membrane. Briefly, cells were fixed by 4% v/v paraformaldehyde for 10 min, rinsed and then permeabilised with 0.5% (v/v) Triton X-100 for 10 min. After rinsing samples were blocked by 5% w/v BSA for 1 h, followed by incubation with primary antibodies (rabbit polyclonal to CD31, rabbit polyclonal to anti-β-catenin) in 1% w/v BSA overnight at 4 °C. […] After rinsing, the red fluorescence from tight junction proteins was observed by a Leica AF6000LX microscope equipped with a 63 × objective using ×1.6 magnifications. […]
formation of multiple cell-layers was sometime observed from day 7 onward. […] TEER values and its corresponding capacitance were recorded after the introduction of peptide for 24 h. (d) & (e) Staining and quantification of endothelial cells (CD31) and adheren β-catenin markers confirming the presence of a functional tight junction before and after NLC ( 5 µM) challenge. […]

[1] = Brain level after intravenous injection; type: in vivo, ICR mice; conditions: for Brain level (% of injected dose): Cy5.5 peptide i.v., Ave
Method: The final concentration of the peptide conjugate was 10 µM and that of siRNA was 48 nM based on blood volume calculation equivalent to 6% of the body weight. At different time points blood samples were collected via retro-orbital blood collection. For whole animal imaging system mice were anaesthetised with isoflurane and in vivo fluorescence images were taken (IVIS 200 Spectrum, USA), at different time points. […] The organs were homogenised (FastPrep-24™ 5G Instrument, MP Biomedicals, USA) and the levels of peptide and siRNA were measured in a fluorescence spectrometer (Fluotime 300, Picoquant, Berlin, Germany) using a standard curve.

[2] = Blood clearance after intravenous injection; type: in vivo, ICR mice; conditions: Cy5.5 peptide i.v., Ave
Method: The final concentration of the peptide conjugate was 10 µM and that of siRNA was 48 nM based on blood volume calculation equivalent to 6% of the body weight. At different time points blood samples were collected via retro-orbital blood collection. For whole animal imaging system mice were anaesthetised with isoflurane and in vivo fluorescence images were taken (IVIS 200 Spectrum, USA), at different time points. At 4 h post administration, mice were sacrificed, and the liver, lungs, kidneys, spleen, pancreas and brain were collected and stored in liquid nitrogen. The organs were homogenised (FastPrep-24™ 5G Instrument, MP Biomedicals, USA) and the levels of peptide and siRNA were measured in a fluorescence spectrometer (Fluotime 300, Picoquant, Berlin, Germany) using a standard curve.

hCMEC/D3 cells = assay: Uptake with internalisation inhibitors; conditions: 37 °C
Method: The medium was then removed and replaced with a fresh medium containing NLCs and the corresponding inhibitor. After 8 h of incubation at 37 °C, cells were washed three times with cell medium and analysed by FACS. Cell viability at the end of each experiment was >90% as determined by Trypan Blue exclusion test. The following inhibitors were used: 2-deoxy-D-glucose (1 mM)/sodium azide (1 mM) as energy-dependent inhibitors, worthmanin (10 μM) as macropinocytosis inhibitor, chloropromazine (30 μM) as clathrin-dependent endocytosis inhibitor, N-ethylmaleimide (5 μM) as caveolae-dependent endocytosis and transcytosis inhibitor and indomethacin (200 μM) as caveolae-dependent endocytosis inhibitor.

[3] = Blood count after intravenous injection; type: in vivo, ICR mice; conditions: mouse, in vivo, iv
Description: Supplementary Table 2. Blood count following intravenous injection of FAM-CGY NLCs in free form and complexed with siRNA
Samples WBC RBC HGB HCT MCV MCH MCHC PLT
WBC: white blood cell; RBC: red blood cell count; HGB: haemoglobin; HCT: haematocrit; MCV: mean corpuscular volume; MCH: mean corpuscular haemoglobin; MCHC: mean corpuscular
significance (*p < 0.05). The results are mean ± s.d. (n = 3 animals per group). The experiment was repeated twice with identical results. The siRNA represent BACE-1-specific siRNA. The
final concentration of the peptide conjugate was 10 µM and that of siRNA was 48 nM, based on blood volume calculation equivalent to 6% of the body weight. LPS = lipopolysaccharide.

BACE1 = assay: In vivo BACE1 silencing, Western blot; design: species or system ICR mice; conditions: for BACE1 expression level: 72 nM siRNA
Method: For in vivo BACE1 silencing, 20 ICR mice were randomly divided into five groups (4 mice in each group) and administrated intravenously with either 72 nM siControl/FAM-CGY or BACE1 siRNA (final concentration, 72 nM) or 72 nM siControl/FAM-CGY scramble peptide1 or 48 nM BACE1 siRNA/FAM-CGY or 72 nM BACE1 siRNA/FAM-CGY, respectively. The final concentration of peptide was 10 μM. […] The frozen brain tissues (80–90 mg) were homogenized in RIPA lysis buffer (Beyotime, China) and centrifuged at 18,000 × g, 4 °C for 15 min. Protein concentration of the supernatant was determined using the BCA Protein Assay Kit. Equal amounts of protein from each sample were loaded on SDS-PAGE gels (4–15%) for the determination with level of the target protein determined by Western blotting using the anti-BACE1 antibody (1:1000 dilution) and detected with HRP-Goat-anti-rabbit) IgG (H + L) secondary antibody (1:3000).

With `O=C(O)c1ccc2c(c1)C(=O)OC21c2ccc(O)cc2Oc2cc(O)ccc21` [5-FAM, 5-carboxy-fluorescein, reference compound] the “transport across the hCMEC/D3 monolayer” value (hCMEC/D3 cell monolayer) was “neither the fluorophor 5-FAM nor the scrambled peptide showed notable transport”.
In the case of `CC[C@H](C)[C@H](NC(=O)[C@H](CC(N)=O)NC(=O)[C@H](Cc1c[nH]cn1)NC(=O)[C@@H](NC(=O)[C@@H]1CCCN1C(=O)[C@H](CCCNC(=N)N)NC(=O)[C@H](Cc1ccc(O)cc1)NC(=O)CNC(=O)[C@H](CS)NC(=O)c1ccc2c(c1)C(=O)OC21c2ccc(O)cc2Oc2cc(O)ccc21)C(C)C)C(=O)NCC(=O)N[C@@H](Cc1c[nH]cn1)C(=O)N[C@@H](Cc1c[nH]c2ccccc12)C(=O)N[C@@H](CCCNC(=N)N)C(=O)N[C@@H](C)C(=O)N1CCC[C@H]1C(=O)NCC(=O)O` [FAM-CGY scrambled 1] (5FAM-CGYRPVHNIGHWRAPG-OH), the “transport across the hCMEC/D3 monolayer” value (hCMEC/D3 cell monolayer; apical to basal, 24 h, fluorescence) is reported as “neither the fluorophor 5-FAM nor the scrambled peptide showed notable transport”.
With “Cy5.5- CGYRPVHNIGHWRAPG [Cy5.5-CGY scrambled 1]” the “Brain level (% of injected dose)” value ([1]; 0.25 h) was 0.74 % of injected dose, the “Brain level (% of injected dose)” value ([1]; 0.50 h) was 1.20 % of injected dose and the “Brain level (% of injected dose)” value ([1]; 1.00 h) was 1.71 % of injected dose. For the same compound, the “Brain level (% of injected dose)” value ([1]; 4.00 h) was 1.92 % of injected dose, the “Brain level (% of injected dose)” value ([1]; 12.00 h) was 1.01 % of injected dose and the “Brain level (% of injected dose)” value ([1]; 24.00 h) was 0.39 % of injected dose. For the same compound, the brain accumulation ([1]; i.v., mice) was “poorly accumulates in the brain”, the “Blood level (% of injected dose)” value ([2]; 0.25 h) was 65.67 % of injected dose and the “Blood level (% of injected dose)” value ([2]; 0.50 h) was 27.80 % of injected dose. The “Blood level (% of injected dose)” value ([2]; 1.00 h) was 11.82 % of injected dose, the “Blood level (% of injected dose)” value ([2]; 4.00 h) was 6.91 % of injected dose and the “Blood level (% of injected dose)” value ([2]; 12.00 h) was 3.51 % of injected dose. For the same compound, the “Blood level (% of injected dose)” value ([2]; 24.00 h) was 1.61 % of injected dose.
In the case of Cy5.5-CGYRPVHNIRGHWAPG, the peak brain level ([1]; 4 h after i.v., corrected for the blood content) is reported as 5.7 % of the injected dose, the “Brain level (% of injected dose)” value ([1]; 0.25 h) is reported as 2.16 % of injected dose and the “Brain level (% of injected dose)” value ([1]; 0.50 h) is reported as 3.71 % of injected dose. For the same compound, the “Brain level (% of injected dose)” value ([1]; 1.00 h) was 5.40 % of injected dose, the “Brain level (% of injected dose)” value ([1]; 4.00 h) was 5.73 % of injected dose and the “Brain level (% of injected dose)” value ([1]; 12.00 h) was 3.72 % of injected dose. The “Brain level (% of injected dose)” value ([1]; 24.00 h) was 1.71 % of injected dose, the “Blood level (% of injected dose)” value ([2]; 0.25 h) was 77.38 % of injected dose and the “Blood level (% of injected dose)” value ([2]; 0.50 h) was 31.74 % of injected dose. For the same compound, the “Blood level (% of injected dose)” value ([2]; 1.00 h) was 14.16 % of injected dose, the “Blood level (% of injected dose)” value ([2]; 4.00 h) was 12.22 % of injected dose and the “Blood level (% of injected dose)” value ([2]; 12.00 h) was 6.13 % of injected dose. The “Blood level (% of injected dose)” value ([2]; 24.00 h) was 1.31 % of injected dose.
In the case of “Transferrin: Texas Red-labelled transferrin, TfR substrate, positive control [reference compound]”, the “Mean flouresence (%), uptake vs Control (no inhibitor)” value (from here on “Mean flouresence (%) … (no inhibitor)”) (hCMEC/D3 cells; CPZ (chloropromazine 30 μM), 8 h, replicate 1) is reported as 55.06%, the “Mean flouresence (%) … (no inhibitor)” value (hCMEC/D3 cells; CPZ (chloropromazine 30 μM), 8 h, replicate 2) is reported as 58.26% and the “Mean flouresence (%) … (no inhibitor)” value (hCMEC/D3 cells; CPZ (chloropromazine 30 μM), 8 h, replicate 3) is reported as 48.74%. The “Mean flouresence (%) … (no inhibitor)” value (hCMEC/D3 cells; DOG+NaN3 (1 mM/1 mM), 8 h, replicate 2) was 38.57%, the “Mean flouresence (%) … (no inhibitor)” value (hCMEC/D3 cells; DOG+NaN3 (1 mM/1 mM), 8 h, replicate 3) was 34.62% and the “Mean flouresence (%) … (no inhibitor)” value (hCMEC/D3 cells; DOG+NaN3 (2-deoxy-D-glucose 1 mM/sodium azide 1 mM), 8 h, replicate 1) was 42.26%. The “Mean flouresence (%) … (no inhibitor)” value (hCMEC/D3 cells; IMC (indomethacin 200 μM), 1 h pre-treatment + 8 h, FACS, FAM-CGY NLC 5 µM or Texas Red-transferrin 5 µg per well, replicate 1) was 102.05%, the “Mean flouresence (%) … (no inhibitor)” value (hCMEC/D3 cells; IMC (indomethacin 200 μM), 8 h, replicate 2) was 90.27% and the “Mean flouresence (%) … (no inhibitor)” value (hCMEC/D3 cells; NEM (N-ethylmaleimide 5 μM), 8 h, replicate 1) was 86.23%. For the same compound, the “Mean flouresence (%) … (no inhibitor)” value (hCMEC/D3 cells; NEM (N-ethylmaleimide 5 μM), 8 h, replicate 2) was 95.58%, the “Mean flouresence (%) … (no inhibitor)” value (hCMEC/D3 cells; NEM (N-ethylmaleimide 5 μM), 8 h, replicate 3) was 86.57% and the “Mean flouresence (%) … (no inhibitor)” value (hCMEC/D3 cells; WOR (worthmanin 10 μM), 8 h, replicate 1) was 112.26%. For the same compound, the “Mean flouresence (%) … (no inhibitor)” value (hCMEC/D3 cells; WOR (worthmanin 10 μM), 8 h, replicate 2) was 98.26% and the “Mean flouresence (%) … (no inhibitor)” value (hCMEC/D3 cells; WOR (worthmanin 10 μM), 8 h, replicate 3) was 108.61%.
For “siBACE1: sense 5′-GCUUUGUGGAGAUGGUGGATT-3′, antisense 5′-UCCACCAUCUCCACAAAGCTT-3′; siRNA of Supplementary Table 2 (chemistry not given here)”, the WBC [3] was 4.54±0.30 (×109)L-1, the BACE1 expression level (BACE1; 48 h after i.v., siControl = 100.00, Ave.) was 101.87 and the BACE1 expression level (BACE1; 48 h after i.v., siControl = 100.00, experiment 2) was 94.53. The BACE1 expression level (BACE1; 48 h after i.v., siControl = 100.00, experiment 3) was 102.52, the BACE1 expression level (BACE1; peptide 10 μM where present, single i.v., 48 h, FAM-CGY+72 nM siControl = 100.00, experiment 1) was 108.56 and the “pharmacological activity in hippocampus” value (BACE1; i.v. BACE1 siRNA in free form or with FAM-SP1) was “no pharmacological activity”.
